pKi: −log10 of the molar value.
Target: PI3-kinase p110-alpha/p85-alpha (Homo sapiens, UniProt P42336)
Assay: Biochemical Assay: PI3KA_FL: Genes encoding for full length p110alpha and p85alpha subunits of PI3Kalpha complex were subcloned from existing constructs into pFASTBAC Dual vector (Life Technologies, Carlsbad, Calif.) using standard cloning procedures. Gene encoding p110alpha subunit was subcloned into polyhedrine promoter while gene encoding p85alpha subunit was subcloned into p10 promoter. Additionally, sequence encoding for histidine tag and Tobacco Etch Virus ("TEV") cleavage site preceded p110alpha ORF (Open Reading Frame). The biochemical assays of kinase activity of full-length PI3Kalpha (full-length p110alpha/p85a) or truncated PI3Kalpha (p110alpha/iSH2 p85a) were conducted using a fluorescence polarization format similar to the procedure of Yuan J., et al., (2011) PF-04691502, a Potent and Selective Oral Inhibitor of PI3K and mTOR Kinases with Antitumor Activity, Mol Cancer Ther. 10, 2189-2199. The enzymatic reactions were conducted in 50 uL volumes in 96-well plates.
Assay type: protein-complex assay

PI3-kinase p110-alpha/p85-alpha, sequence (P27986 whole entry, the tested form may be a part): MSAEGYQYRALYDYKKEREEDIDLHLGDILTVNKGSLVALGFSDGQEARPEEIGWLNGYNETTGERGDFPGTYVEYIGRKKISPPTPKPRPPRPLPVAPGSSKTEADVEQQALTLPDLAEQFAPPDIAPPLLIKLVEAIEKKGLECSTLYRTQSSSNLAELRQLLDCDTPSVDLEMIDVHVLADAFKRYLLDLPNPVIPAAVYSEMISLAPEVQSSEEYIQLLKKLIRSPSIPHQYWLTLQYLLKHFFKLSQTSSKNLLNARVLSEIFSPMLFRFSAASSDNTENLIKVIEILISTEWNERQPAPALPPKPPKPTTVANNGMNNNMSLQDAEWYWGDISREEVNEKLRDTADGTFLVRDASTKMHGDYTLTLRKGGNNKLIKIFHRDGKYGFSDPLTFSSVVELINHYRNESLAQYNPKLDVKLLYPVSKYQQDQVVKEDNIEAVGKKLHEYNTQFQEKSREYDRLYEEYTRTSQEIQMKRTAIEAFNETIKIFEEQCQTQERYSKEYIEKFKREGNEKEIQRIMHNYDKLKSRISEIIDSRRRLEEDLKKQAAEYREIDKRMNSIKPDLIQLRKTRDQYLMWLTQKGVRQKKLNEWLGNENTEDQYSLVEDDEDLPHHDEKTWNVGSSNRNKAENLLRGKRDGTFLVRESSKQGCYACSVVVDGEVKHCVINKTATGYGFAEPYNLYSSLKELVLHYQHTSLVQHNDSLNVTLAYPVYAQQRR
PI3-kinase p110-alpha/p85-alpha, sequence (P42336 whole entry, the tested form may be a part): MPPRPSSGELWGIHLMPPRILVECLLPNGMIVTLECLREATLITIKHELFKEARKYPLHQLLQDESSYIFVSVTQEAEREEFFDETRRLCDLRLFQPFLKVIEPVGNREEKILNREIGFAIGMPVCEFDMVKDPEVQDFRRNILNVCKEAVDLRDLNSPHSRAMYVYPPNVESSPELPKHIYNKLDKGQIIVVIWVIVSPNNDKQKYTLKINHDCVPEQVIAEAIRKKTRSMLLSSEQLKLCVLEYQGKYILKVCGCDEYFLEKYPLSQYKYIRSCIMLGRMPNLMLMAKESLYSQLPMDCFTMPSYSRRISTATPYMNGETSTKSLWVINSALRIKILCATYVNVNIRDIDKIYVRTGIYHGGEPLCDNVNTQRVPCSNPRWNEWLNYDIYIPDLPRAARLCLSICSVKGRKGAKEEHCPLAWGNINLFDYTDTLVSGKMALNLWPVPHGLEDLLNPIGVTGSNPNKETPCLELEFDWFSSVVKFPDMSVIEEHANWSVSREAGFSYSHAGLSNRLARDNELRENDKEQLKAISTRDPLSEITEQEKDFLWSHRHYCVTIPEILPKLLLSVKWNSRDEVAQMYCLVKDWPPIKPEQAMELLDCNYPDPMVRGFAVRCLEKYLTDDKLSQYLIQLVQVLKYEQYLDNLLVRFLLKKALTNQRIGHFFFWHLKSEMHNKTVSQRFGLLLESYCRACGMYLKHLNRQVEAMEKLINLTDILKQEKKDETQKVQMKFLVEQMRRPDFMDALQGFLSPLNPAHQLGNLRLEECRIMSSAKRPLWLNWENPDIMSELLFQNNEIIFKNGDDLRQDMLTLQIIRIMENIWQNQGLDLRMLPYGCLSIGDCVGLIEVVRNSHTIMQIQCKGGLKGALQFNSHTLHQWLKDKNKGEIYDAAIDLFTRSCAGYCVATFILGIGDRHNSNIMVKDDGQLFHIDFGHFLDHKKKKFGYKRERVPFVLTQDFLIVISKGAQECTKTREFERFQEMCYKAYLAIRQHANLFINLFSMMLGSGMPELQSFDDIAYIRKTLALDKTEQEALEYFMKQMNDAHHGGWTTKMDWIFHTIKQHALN

## CC(=O)N[C@H]1C(C)(C)[C@H](N2CCc3c(-c4cnc(N)nc4)nc(N4CCOCC4)nc32)C1(C)C
  pKi: 8.94
